Like-named read-outs stand apart in the source and are kept apart here.
Tests used:
[1] = system: HCV from sera of patients infected with resistant strains; assay: Capture fusion assay: THP-1 cells infected with patient serum, fused with Huh7.5, HCV RNA by PCR; type: cell-based; conditions: for IC50: Hepatitis C virus
Description: Serum samples were taken from 30 patients who had either responded to or previously failed treatment with combination peg-interferon/ribavirin and a direct acting antiviral (DAA), e.g., sofosbuvir and ledipasvir, or DAA treatment alone (FIG. 16). The anti-HCV activity of Formula (IIa) was assessed using the capture fusion assay. Briefly, pre-stimulated THP-1 cells were infected with serum from donors chronically infected with the common HCV genotypes G1 or G3, or from patients infected with the less prevalent G2, G4 or G6 HCV. The hybrid cells were treated once with a range of concentrations of Formula (IIa). For comparison, fused cells infected with G1 and G3 sera were treated with telaprevir or alisporivir. The cells were cultured for 5 days, before quantification of HCV RNA by PCR. Dose-response curves were used to calculate IC50 values for each experiment. The detailed assay protocol is outlined below.
Huh7.5 and Huh7 cells were maintained in Dulbecco's modified Eagle medium with glutamine supplemented with 10% fetal calf serum and 1% penicillin/streptomycin (DMEM/10% FCS/PS). THP-1 cells were maintained in RPMI with glutamine supplemented with 10% fetal calf serum and 1% penicillin/streptomycin (RPMI/10% FCS/PS). Peripheral blood mononuclear cells (PBMC) and sera were obtained from patients with chronic HCV infection, with informed consent. Cytokines used were phorbol 12-myristate 13-acetate (PMA, Sigma-Aldrich, Dorset, UK), IFNγ (Invitrogen, Paisley, UK) and osteopontin (R&D Systems, Abingdon, UK). Primary antibodies used were anti-albumin (Dako, Glostrup, Denmark), anti-CD81 (BD Biosciences, Oxford, UK), anti-SR-B1 (Novus Biologicals, Cambridge, UK), anti-CD32 and anti-CD64 (Abcam, Cambridge, UK). Mouse IgG1 isotype control was purchased from Biolegend UK (London, UK). Fluorescent secondary antibodies AlexaFluor488 and 594 anti-sheep, anti-mouse and anti-rabbit IgG were purchased from Invitrogen.
PBMCs were separated from whole blood by centrifugation on Ficoll-Paque. The PBMC layer was washed twice before positive selection of CD14+ cells by magnetic separation. Huh7.5 cells were trypsinized and combined with CD14+ cells at a 1:1 ratio. After removal of all supernatant, the cell pellet was slowly resuspended in prewarmed polyethylene glycol 1500 (Roche Diagnostics, Burgess Hill, UK). After incubation at 37° C. for 2 minutes, prewarmed medium (DMEM/10% FCS/PS) was added dropwise and the cells washed by centrifugation. The fused cells were seeded into 6 well plates at a density of 5×10^5 cells/mL and maintained at 37° C. until RNA extraction.
THP-1 cells were seeded into 6 well plates at a density of 10^6 cells/mL and maintained in RPMI supplemented with 10% fetal calf serum and 1% penicillin/streptomycin (RPMI/10% FCS/1% PS) for 18 hours, with or without the addition of cytokines. The cells were washed three times and the medium replaced with RPMI/2% FCS and patient serum at a ratio of 1 HCV copy per cell. For antibody blocking experiments, cells were incubated with blocking antibody at 37° C. for one hour before addition of patient serum. After incubation at 37° C. for 18-24 hours, the supernatant was removed and cells were washed three times. Adherent cells were removed using a cell scraper and Huh7.5 cells added at a 1:1 ratio. Cell fusion was performed as described above. The fused cells were seeded into 6 well plates at a density of 10^5 cells/mL and maintained at 37° C. in the presence or absence of antiviral drugs for up to 7 days. In selected experiments, supernatants were pooled from non-drug treated wells and concentrated on a sucrose gradient. In brief, the pooled supernatants were filtered through a 0.45 μm filter then 10 mL of each was layered on 4 mL 20% sucrose. The supernatants were centrifuged at 24,000×g for 2 hours and the resulting pellet resuspended in 1 mL RPMI. […]

HCV RNA = assay: Part B (MAD): antiviral response (HCV RNA viral load) in treatment naive subjects with chronic HCV infection; type: in vivo, human
Text: Part B was a blinded, randomized, placebo-controlled MAD study consisting of four cohorts of eight subjects randomized 6:2 to receive Formula (IIa) or placebo. A total of 30 treatment naïve subjects with CHC infection were enrolled in and a total of 29 subjects (22 subjects administered Formula (IIa) and 7 subjects administered placebo) completed Part B of the study. One subject administered placebo withdrew from the study on Day 2. Subjects infected with HCV-1 and HCV-3 genotypes were enrolled, and no subjects infected with HCV-2 participated in the study. To control for the possible effect of the IL28b genotype, the number of subjects with CC alleles was capped at three per cohort.
The starting dose was determined by the SRC based on review of all safety and any available PK/PD data from Part A. All subjects were dosed in the fasted state with Formula (IIa) daily, from Day 1 until […]. All subjects had nothing by mouth other than water for at least 10 hours prior to daily dosing and for 4 hours thereafter. In Part B, all subjects were administered the study medication orally with approximately 240 mL of water at the same time every day (+/−10 minutes).
A subset of blood samples shown in Table 3 above was used for the PK evaluation of plasma trough concentrations (Table 4). […]

[2] = system: HCV replicon cell line AVA5 [sub-genomic (CON1), genotype 1b]; assay: 3-day HCV replicon antiviral assay (blot hybridization of intracellular HCV RNA), alone and with sofosbuvir; type: cell-based; conditions: Hepatitis C virus, Ava5, 72 h, read-out: IC50 (intracellular HCV RNA)

`CO[C@H]1C(OP(=O)(OC[C@H]2O[C@@H](n3cnc4c(N)ncnc43)CC2O)SCOC(=O)OC(C)C)[C@@H](CO)O[C@H]1n1ccc(=O)[nH]c1=O` (stereo partly shown) [Formula (IIa)] showed an IC50 ([1]; five selected patient samples with NS5A mutations (Example 4, FIGS. 18A-18E), read-out: IC50 range) of no less than 1 nM, an IC50 ([1]; genotype 3, genotype 3, treatment experienced group, mean±sem) of 22 nM and an IC50 ([1]; genotype 3, genotype 3, treatment naive group, mean±sem, read-out: IC50) of 26 ± 7 nM. For the same molecule, the IC50 ([1]; patient sample post-peg/RBV treatment, read-out: IC50) was 455 nM, the IC50 ([1]; patient sample pre-peg/RBV treatment, read-out: IC50) was 450 nM and the IC50 ([1]; sample from patient 7 prior to administration of telaprevir, FIG. 14A, read-out: IC50) was 450 nM. The IC50 ([1]; sample from patient 22, repeated relapse after combination interferon and ribavirin therapy (IFN resistant), FIG. 12A, read-out: IC50) was 24 nM, the IC50 ([1]; sample from patient 23, relapse of HCV infection (IFN resistant), FIG. 12B, read-out: IC50) was 5.46 nM and the IC50 ([1]; sample from patient 25 after treatment with telaprevir, FIG. 14B, read-out: IC50) was 6.4 nM. The IC50 ([1]; serum sample from patient 30, sofosbuvir resistant strain, FIG. 13C, read-out: IC50) was 4 nM, the IC50 ([1]; serum samples from 30 patients (Example 3), read-out: IC50 range for all patient samples) was 1 to 455 nM and the “genotype coverage of anti-HCV activity” value ([1]; patient sera of HCV genotypes G1, G3, G2, G4 or G6) was “pan-genotypic activity”. For the same molecule, the “sensitivity of sample to treatment” value ([1]; post-treatment sample of patient who relapsed after sofosbuvir-containing therapy, FIG. 24C) was “sensitive”, the “Peak individual viral load drop” value (HCV RNA; 200 mg Formula (IIa) QD) was 1.5 log10 and the “Peak individual viral load drop” value (HCV RNA; 400 mg Formula (IIa) QD) was 1.9 log10. For the same molecule, the IC50 [2] was 31.7 nM.
